Test systems include EKVX NSCLC; SN12C renal; HCT-116 colon; SF-295 CNS; SK-MEL-28 melanoma; K-562 leukemia; CCRF-CEM leukemia; SNB-19 CNS; OVCAR-5 ovarian; UACC-62 melanoma.
Common to all, as to test: NCI anticancer screen, dose series, 48 h

SMILES strings stand for the structures.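 Step 1: Grow cells in 96-well plates. Step 2: Expose to compound for 48 hours at 5 concentrations. Step 3: Interpolate endpoints linearly; if unreached, use highest concentration. GI50 marks 50% less growth. The concentration for full growth arrest is given as TGI.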

Regarding `COc1cc(O)c2c(c1)C(=O)c1cc(C)cc(O)c1C2=O`, the TGI with EKVX NSCLC, with SN12C renal, in the experiment on HCT-116 colon, with SF-295 CNS, in the experiment with SK-MEL-28 melanoma and with K-562 leukemia was above 100 µM in each case. The TGI in the experiment with CCRF-CEM leukemia, in the experiment with SNB-19 CNS, in the experiment on OVCAR-5 ovarian and in the experiment on UACC-62 melanoma was above 100 µM throughout.
As to `Cn1c(Sc2ccc(-c3cccnc3)n2C)ccc1-c1cccnc1`, the TGI in the experiment on EKVX NSCLC was above 56.8 µM; in the experiment with SN12C renal it was 39.6 µM; in the experiment with HCT-116 colon, 25.7 µM; with SF-295 CNS it was 38.6 µM; with SK-MEL-28 melanoma, 26.9 µM; in the experiment on K-562 leukemia, 13.8 µM. For the same molecule, the TGI came out at 4.53 µM in the experiment with CCRF-CEM leukemia, 42.3 µM in the experiment on SNB-19 CNS, 50.9 µM with OVCAR-5 ovarian and 29.7 µM in the experiment with UACC-62 melanoma.
For `Cc1cc(=O)oc2c1cc(OCC(=O)OCCN1CCCCC1)c1occ(C)c12`, the TGI with EKVX NSCLC, with SN12C renal, in the experiment with HCT-116 colon, in the experiment with SF-295 CNS, in the experiment with SK-MEL-28 melanoma and with K-562 leukemia was above 100 µM throughout. For the same molecule, the TGI in the experiment with CCRF-CEM leukemia, in the experiment with SNB-19 CNS, with OVCAR-5 ovarian and in the experiment on UACC-62 melanoma was above 100 µM throughout.
Regarding `NC(=O)Nc1cc(O)ccc1N=Nc1ccc(S(=O)(=O)Nc2ccccn2)cc1`, the TGI in the experiment with EKVX NSCLC, in the experiment on SN12C renal, with HCT-116 colon, in the experiment on SF-295 CNS, with SK-MEL-28 melanoma and in the experiment with K-562 leukemia was above 100 µM each time. Moreover, the TGI in the experiment on CCRF-CEM leukemia, with SNB-19 CNS, with OVCAR-5 ovarian and with UACC-62 melanoma was above 100 µM in each case.
As to `CC(CO)(CO)Nc1ncnc2ccccc12`, the TGI in the experiment with EKVX NSCLC, in the experiment with SN12C renal, in the experiment with HCT-116 colon, in the experiment on SF-295 CNS, with SK-MEL-28 melanoma and with K-562 leukemia was above 100 µM each time. The TGI in the experiment with CCRF-CEM leukemia, with SNB-19 CNS, in the experiment with OVCAR-5 ovarian and in the experiment with UACC-62 melanoma was above 100 µM throughout.
As for `CCOC(=O)NC`, the TGI with EKVX NSCLC, in the experiment with SN12C renal, in the experiment on HCT-116 colon, in the experiment on SF-295 CNS, with SK-MEL-28 melanoma and with K-562 leukemia was above 100 µM throughout. Also, the TGI in the experiment on CCRF-CEM leukemia, in the experiment with SNB-19 CNS, in the experiment on OVCAR-5 ovarian and with UACC-62 melanoma was above 100 µM in each case.
Take `Nc1nnc(N)n1NC(=O)C(=O)Nc1ccc([N+](=O)[O-])cc1`: the TGI with EKVX NSCLC, in the experiment with SN12C renal, with HCT-116 colon, with SF-295 CNS, in the experiment with SK-MEL-28 melanoma and in the experiment with K-562 leukemia was above 100 µM each time. Further, the TGI in the experiment with CCRF-CEM leukemia, in the experiment with SNB-19 CNS, in the experiment with OVCAR-5 ovarian and in the experiment on UACC-62 melanoma was above 100 µM in each case.
`c1ccc2sc(SCN(C3CCCCC3)C3CCCCC3)nc2c1`: the TGI in the experiment on EKVX NSCLC, in the experiment on SF-295 CNS, with SK-MEL-28 melanoma, in the experiment on K-562 leukemia, in the experiment with SNB-19 CNS and with OVCAR-5 ovarian was above 100 µM throughout. In the experiment with UACC-62 melanoma, this molecule had a TGI above 100 µM.
Regarding `O=C(O)C1=NNC(C(=O)O)=NN1`, the TGI in the experiment with EKVX NSCLC, in the experiment on SN12C renal, with HCT-116 colon, in the experiment on SF-295 CNS, in the experiment on SK-MEL-28 melanoma and with K-562 leukemia was above 100 µM in each case. Besides, the TGI in the experiment on CCRF-CEM leukemia, in the experiment on SNB-19 CNS, in the experiment on OVCAR-5 ovarian and with UACC-62 melanoma was above 100 µM in each case.
For `CCCCCCCCCCCCCCCCOCC(COP(=O)([O-])OCC[n+]1ccc(N(C)C)cc1)OCC` (configuration not stated), the TGI is 34.6 µM in the experiment on SN12C renal; 24.5 µM in the experiment on HCT-116 colon; 30.2 µM in the experiment with SF-295 CNS; 32.4 µM in the experiment on SK-MEL-28 melanoma; 36.6 µM with K-562 leukemia; 24.9 µM with CCRF-CEM leukemia. The TGI in the experiment with SNB-19 CNS stood at 14.4 µM; in the experiment with UACC-62 melanoma it was 29 µM.
Regarding `COc1c(Cl)cc(S(=O)O)cc1Cl`, the TGI in the experiment on EKVX NSCLC, with SN12C renal, in the experiment on HCT-116 colon, in the experiment with SK-MEL-28 melanoma, in the experiment on K-562 leukemia and with CCRF-CEM leukemia was above 100 µM throughout. Moreover, the TGI with SNB-19 CNS, in the experiment with OVCAR-5 ovarian and in the experiment with UACC-62 melanoma was above 100 µM each time.
As for `Fc1ccc(-c2nnc3sc(COc4ccccc4Cl)nn23)cc1Cl`, the GI50 was 39.2 µM in the experiment with EKVX NSCLC; 31.9 µM in the experiment with SN12C renal; 29.1 µM in the experiment with HCT-116 colon; 61.8 µM in the experiment on SF-295 CNS; 24.6 µM with K-562 leukemia; 20.8 µM with CCRF-CEM leukemia. Besides, the results for the GI50 in the experiment with SNB-19 CNS, with OVCAR-5 ovarian and with UACC-62 melanoma were 39.9 µM, 81 µM and 38.4 µM, respectively. Also, the TGI is above 100 µM in the experiment on EKVX NSCLC; above 100 µM in the experiment on SN12C renal; above 100 µM in the experiment with HCT-116 colon; above 100 µM in the experiment on SF-295 CNS; 67.6 µM in the experiment with K-562 leukemia; 52.6 µM in the experiment on CCRF-CEM leukemia. Further, the TGI in the experiment on SNB-19 CNS, in the experiment on OVCAR-5 ovarian and in the experiment with UACC-62 melanoma was above 100 µM each time.
Take `O=C1c2ccccc2C(=O)c2c1ccc(C(=O)O)c2-c1ccc2ccccc2c1`: the TGI in the experiment with EKVX NSCLC was 81 µM; in the experiment on SN12C renal, 88.8 µM; with HCT-116 colon, 47.7 µM; with SF-295 CNS, 81 µM; in the experiment with SK-MEL-28 melanoma, above 100 µM; in the experiment with K-562 leukemia it was 85.7 µM. Moreover, the TGI in the experiment with CCRF-CEM leukemia was 52.4 µM; in the experiment with SNB-19 CNS, above 100 µM; in the experiment with OVCAR-5 ovarian, 59.3 µM; with UACC-62 melanoma, 37.8 µM.

Source of the values: PubChem BioAssay (NCI).
